{
  "source": "patent US20230241029A1",
  "about": "“METHODS OF REDUCING POST-SURGICAL METASTASIS” (priority 2018, published 2023)",
  "key": {"[1]": {"test_system": "B16F10 melanoma cells", "settings": "wild type mice with PVA sponges; HDC 1,500 μg/mouse i.p. thrice weekly for 2 weeks; foci counted 3 weeks after B16F10 injection; p<0.0001, n=10", "protocol": "(§1) To mimic the wounding inflammation associated with surgery, sterile polyvinyl alcohol (PVA) sponges (1 cm^2 with a thickness of 2 mm) were implanted subcutaneously to wild type C57BL/6 and Nox2−/− mice (mouse strain B6.129S6-Cybbtm1Din, obtained from the Jackson Laboratory) aiming to induce tissue inflammation.\n(§2) Mice received intraperitoneal injections of the NOX2-inhibitor HDC (1,500 μg/mouse) thrice weekly for 2 weeks starting two days before implantation of sponges."}, "[2]": {"test_system": "intracellular reactive oxygen species in CD11b+LyC6+ inflammatory monocytes", "settings": "sponge-bearing wild type mice; HDC 1,500 μg/mouse i.p. thrice weekly; DCFDA, one week after implantation", "protocol": "The values were normalized against those of unwounded control mice on each collection day.\nas §1, §2\nOne week after implantation of sponges, before injection of melanoma cells, peripheral blood was drawn from vena saphena of wild type and Nox2−/− mice. Blood cells were stained for CD11b and Ly6C using fluorochrome-conjugated antibodies and with DCFDA to detect content of intracellular reactive oxygen species. The content of CD11b+LyC6+inflammatory monocytes in blood and their levels of intracellular radicals was determined using flow cytometry."}},
  "data": [
    {"smiles": "Cl.Cl.NCCc1c[nH]cn1", "note": "[HDC, histamine dihydrochloride]", "values": [
      {"measurement": "formation of metastases (metastatic foci in lungs) during surgical/wounding-induced inflammation", "setting": "[1]", "result": "significantly reduced"},
      {"measurement": "ROS levels in blood inflammatory monocytes", "setting": "[2]", "result": "trend towards reduced ROS levels"}
    ]}
  ]
}
